Data published in patent publication US20220213055A1, “SUBSTITUTED (PIPERIDIN-1-YL)ARYL ANALOGUES FOR MODULATING AVIL ACTIVITY” (University of Virginia Patent Foundation, priority 2019, published 2022).
Where two headings read alike, the source gives them in different places.

Columns and labels:
[1] = test system: Glioblastoma cell line U87 cells; test: MTT cell viability assay, glioblastoma cells; format: cell-based; details: U87 glioblastoma cells, MTT after three days
Protocol: (§1) Different concentration of compounds were added to the cells. Three days later, a MTT assay (Sigma) was performed to monitor cell viability.
(§2) In this example, samples of glioblastoma cells (U87) and astrocyte cells (non-cancer control) were exposed various disclosed compounds to determine the effectiveness of the compounds for inhibiting cell growth.

[2] = test system: Immortalized human astrocytes; test: MTT cell viability assay, astrocytes (non-cancer control); format: cell-based; details: immortalized human astrocytes, MTT after three days
Protocol: as §1, §2

| Structure (SMILES) | IC50 ([1]; Homo sapiens, U-87 MG, 72 h) [µM] | IC50 [1] [µM] | IC50 ([2]; Homo sapiens, Astrocyte, 72 h) [µM] | IC50 ([2]; read-out: IC50 (astrocyte)) [µM] |
| --- | --- | --- | --- | --- |
| Nc1nccc(N2CCCC(CCCc3ccccc3)(COCc3ccccc3)C2)n1 (centres unmarked) [PLH1253, 4-(3-((Benzyloxy)methyl)-3-(3-phenylpropyl)piperidin-1-yl)pyrimidin-2-amine] | ~1.7 | ~3.4 |  |  |
| Nc1ccnc(N2CCCC(CO)(CCCc3ccccc3)C2)n1 (centres unmarked) [PLH2006, (1-(4-Aminopyrimidin-2-yl)-3-(3-phenylpropyl)piperidin-3-yl)methanol] | > 80 |  | > 80 |  |
| OCC1(CCCc2ccccc2)CCCNC1 (centres unmarked) [PLH1211] | > 80 |  | > 80 |  |
| Cc1c(Cl)ncnc1N1CCC(CO)(CCCc2ccccc2)CC1 [JDDUVA50, (1-(6-Chloro-5-methylpyrimidin-4-yl)-4-(3-phenylpropyl)piperidin-4-yl)methanol] | 21 |  | > 80 |  |
| COc1nc(OC)nc(N2CCC(CO)(CCCc3ccccc3)CC2)n1 [JDDUVA52, (1-(4,6-Dimethoxy-1,3,5-triazin-2-yl)-4-(3-phenylpropyl)piperidin-4-yl)methanol] | 41 |  | > 80 |  |
| Cc1c(Cl)ncnc1N1CCCC(CO)(CCCc2ccccc2)C1 (centres unmarked) [PLH1279, (1-(6-Chloro-5-methylpyrimidin-4-yl)-3-(3-phenylpropyl)piperidin-3-yl)methanol] | 8 |  | > 80 |  |
| Cc1c(O)ncnc1N1CCC(CO)(CCCc2ccccc2)CC1 [JDDUVA48, 6-(4-(Hydroxymethyl)-4-(3-phenylpropyl)piperidin-1-yl)-5-methylpyrimidin-4-ol] | 14.1 |  | 7.32 |  |
| Cc1nc(N)nc(N2CCC(CO)(CCCc3ccccc3)CC2)c1C [JDDUVA43, (1-(2-Amino-5,6-dimethylpyrimidin-4-yl)-4-(3-phenylpropyl)piperidin-4-yl)methanol] |  |  | 47 | 60 |
| CC(C)(C)OC(=O)N1CCCC(CO)(CCCc2ccccc2)C1 (centres unmarked) [PLH1196] | ~30 |  | > 80 |  |
| CS(=O)(=O)OCC1(CCCc2ccccc2)CCCN(c2ccnc(N)n2)C1 (centres unmarked) [PLH1224] | ~50 |  | > 80 |  |
| Nc1nc(N)nc(N2CCCC(CO)(CCCc3ccccc3)C2)n1 (centres unmarked) [PLH1258, (1-(4,6-Diamino-1,3,5-triazin-2-yl)-3-(3-phenylpropyl)piperidin-3-yl)methanol] | 3.6 |  | > 80 |  |
| O=Cc1c(Cl)ncnc1N1CCCC(CO)(CCCc2ccccc2)C1 (centres unmarked) [PLH1293] | 8 |  | 18 |  |
| O=C(O)C1(CCCc2ccccc2)CCCNC1 (centres unmarked) [PLH1197] | ~80 |  | > 80 |  |
| Nc1nccc(N2CCCC(CO)C2)n1 (centres unmarked) [JDDUVA18, (1-(2-Aminopyrimidin-4-yl)piperidin-3-yl)methanol] | > 80 |  |  |  |
| COC(=O)C1CCCNC1 (centres unmarked) [PLH1155] | > 80 |  | > 80 |  |
| Nc1nccc(N2CCC[C@@H](COCc3ccccc3)C2)n1 [PLH2040, (R)-4-(3-((Benzyloxy)methyl)piperidin-1-yl)pyrimidin-2-amine] | 2.8 |  | > 80 |  |
| OCC1(CCCc2ccccc2)CCCN(c2ccncn2)C1 (centres unmarked) [PLH2062, (3-(3-Phenylpropyl)-1-(pyrimidin-4-VI)piperidin-3-yl)methanol] | ~30 |  | > 80 |  |
| COC(=O)C1CCCN(c2ccnc(N)n2)C1 (centres unmarked) [JDDUVA16] | > 80 |  |  |  |
| Clc1cc(N2CCc3ccccc3C2)ncn1 [JDDUVA81] | > 80 |  | > 80 |  |
| CCOC(=O)C1(CCCc2ccccc2)CCCN(C(=O)OC(C)(C)C)C1 (centres unmarked) [PLH1225] | ~15 |  | > 80 |  |
| CCc1ncnc(N2CCCC(CO)(CCCc3ccccc3)C2)c1F (centres unmarked) [PLH2002, (1-(6-Ethyl-5-fluoropyrimidin-4-yl)-3-(3-phenylpropyl)piperidin-3-yl)methanol] | 1.5 |  | 1.1 |  |
| OCC1(CCCc2ccccc2)CCCN(c2ncnc3cc(Cl)ccc23)C1 (centres unmarked) [PLH2074, (1-(7-Chloroquinazolin-4-yl)-3-(3-phenylpropyl)piperidin-3-yl)methanol] | ~2 |  | ~15 |  |
| Cc1ncnc(N2CCC(CO)(CCCc3ccccc3)CC2)c1C [JDDUVA96, (1-(5,6-Dimethylpyrimidin-4-yl)-4-(3-phenylpropyl)piperidin-4-yl)methanol] | ~4 |  | ~8 |  |
| COc1nc(OC)nc(N2CCCC(CO)(CCCc3ccccc3)C2)n1 (centres unmarked) [PLH1230, (1-(4,6-Dimethoxy-1,3,5-triazin-2-yl)-3-(3-phenylpropyl)piperidin-3-yl)methanol] | 63.6 |  | > 80 |  |
| Nc1nccc(N2CCCC(C(=O)NCCc3ccccc3)C2)n1 (centres unmarked) [PLH1285, 1-(2-Aminopyrimidin-4-yl)-N-phenethylpiperidine-3-carboxamide] | 17 |  | > 80 |  |
| Cc1nccnc1N1CCC(CO)(CCCc2ccccc2)CC1 [JDDUVA53, (1-(3-Methylpyrazin-2-yl)-4-(3-phenylpropyl)piperidin-4-yl)methanol] | 30 |  | > 80 |  |

| Structure (SMILES) | IC50 ([1]; Homo sapiens, U-87 MG, 72 h) [µM] | IC50 [1] [µM] | IC50 ([2]; Homo sapiens, Astrocyte, 72 h) [µM] | IC50 ([2]; read-out: IC50 (astrocyte)) [µM] |
| --- | --- | --- | --- | --- |
| COC(=O)C1(CCCc2ccccc2)CCCN(c2ccnc(N)n2)C1 (centres unmarked) [PLH1209, Methyl 1-(2-aminopyrimidin-4-yl)-3-(3-phenylpropyl)piperidine-3-carboxylate] |  | 6 |  | 76 |
| Nc1nccc(N2CCCC(CO)(CCCc3ccccc3)C2)n1 (centres unmarked) [JDDUVA38] |  | ~11 |  | 56 |
| Nc1nccc(N2CCc3ccccc3C2)n1 [JDDUVA71, 4-(3,4-Dihydroisoquinolin-2(1H)-yl)pyrimidin-2-amine] | > 80 |  | > 80 |  |
| Nc1nccc(N2CCCCC2)n1 [JDDUVA12, 4-(Piperidin-1-yl)pyrimidin-2-amine] | > 80 |  | > 80 |  |
| CC(C)(C)OC(=O)N1CCCC(C(=O)NCc2ccccc2)C1 (centres unmarked) [PLH1273] | > 80 |  | > 80 |  |
| Nc1nccc(N2CCC(c3ccccc3)CC2)n1 [JDDUVA63, 4-(4-Phenylpiperidin-1-yl)pyrimidin-2-amine] | 16 |  | > 80 |  |
| OCC1(CCCc2ccccc2)CCN(c2cc(Cl)ncn2)CC1 [JDDUVA60, (1-(6-Chloropyrimidin-4-yl)-4-(3-phenylpropyl)piperidin-4-yl)methanol] |  |  | > 80 |  |
| Nc1nccc(N2CCCCC2CO)n1 (centres unmarked) [JDDUVA61, (1-(2-Aminopyrimidin-4-yl)piperidin-2-yl)methanol] | > 80 |  | > 80 |  |
| Cc1c(-c2ccccc2)ncnc1N1CCCC(CO)(CCCc2ccccc2)C1 (centres unmarked) [PLH2063, (1-(5-methyl-6-phenylpyrimidin-4-yl)-3-(3-phenylpropyl)piperidin-3-yl)methanol] | ~80 |  | ~80 |  |
| Nc1nccc(N2CCCC(CO)(CCCc3ccccc3)C2)n1 (centres unmarked) [PLH1215, (1-(2-Aminopyrimidin-4-yl)-3-(3-phenylpropyl)piperidin-3-yl)methanol] | ~11.7 |  | > 80 |  |
| Nc1ncnc(N2CCC(CO)(CCCc3ccccc3)CC2)c1N [JDDUVA51, (1-(5,6-Diaminopyrimidin-4-yl)-4-(3-phenylpropyl)piperidin-4-yl)methanol] | 12 |  | > 80 |  |
| Nc1ncnc(N2CCCC(CO)(CCCc3ccccc3)C2)n1 (centres unmarked) [PLH1239, (1-(4-Amino-1,3,5-triazin-2-yl)-3-(3-phenylpropyl)piperidin-3-yl)methanol] | > 80 |  |  |  |
| COC(=O)C1(CCCc2ccccc2)CCCN(C(=O)OC(C)(C)C)C1 (centres unmarked) [PLH1195] | ~22.5 |  | 65 |  |
| COC(=O)C1(CCCc2ccccc2)CCCN(c2ccnc(N)n2)C1 (centres unmarked) [JDDUVA20] | ~10.9 |  | 70 |  |
| Nc1nccc(N2CCC(CO)(CCCc3ccccc3)CC2)n1 [JDDUVA49, (1-(2-Aminopyrimidin-4-yl)-4-(3-phenylpropyl)piperidin-4-yl)methanol] | 3 |  | > 80 |  |
| COc1c(Cl)ncnc1N1CCC(CO)(CCCc2ccccc2)CC1 [JDDUVA67, (1-(6-Chloro-5-methoxypyrimidin-4-yl)-4-(3-phenylpropyl)piperidin-4-yl)methanol] | ~2.5 |  | ~6 |  |
| Nc1nc(N)nc(N2CCC(CO)(CCCc3ccccc3)CC2)n1 [JDDUVA78, (1-(4,6-Diamino-1,3,5-triazin-2-yl)-4-(3-phenylpropyl)piperidin-4-yl)methanol] | 12 |  | ~40 |  |
| CCOC(=O)C1(CCCc2ccccc2)CCN(C(=O)OC(C)(C)C)CC1 [JDDUVA76] | ~30 |  | ~60 |  |
| CCc1ncnc(N2CCC(CO)(CCCc3ccccc3)CC2)c1F [JDDUVA68, (1-(6-Ethyl-5-fluoropyrimidin-4-yl)-4-(3-phenylpropyl)piperidin-4-yl)methanol] | 3.6 |  | 12.5 |  |
| OCC1(CCCc2ccccc2)CCCN(c2ccccn2)C1 (centres unmarked) [PLH1291, (3-(3-Phenylpropyl)-1-(pyridin-2-VI)piperidin-3-VI)methanol] | 14 |  | > 80 |  |
| O=C(c1sc2cc(F)ccc2c1Cl)N1CCCC(CO)(CCCc2ccccc2)C1 (centres unmarked) [PLH1254] | 16 |  | 49 |  |
| CC1CCN(c2ccnc(N)n2)CC1 [JDDUVA59, 4-(4-Methylpiperidin-1-yl)pyrimidin-2-amine] | 72 |  | > 80 |  |
| Cc1nc(N(C)C)nc(N2CCCC(CO)(CCCc3ccccc3)C2)c1C (centres unmarked) [PLH1276, (1-(2-(Dimethylamino)-5,6-dimethylpyrimidin-4-yl)-3-(3-phenylpropyl)piperidin-3-yl)methanol] | 19 |  | > 80 |  |
| Nc1cncc(N2CCC(CO)(CCCc3ccccc3)CC2)n1 [JDDUVA55] | 16 |  | > 80 |  |
| Nc1nccc(N2CCC[C@H](COCc3ccccc3)C2)n1 [PLH2032, (S)-4-(3-((Benzyloxy)methyl)piperidin-1-yl)pyrimidin-2-amine] | 4.3 |  | ~40 |  |
